Consider twelve compounds from patent US20230416205A1, “COMPOUNDS, COMPOSITIONS, AND METHODS” (Denali Therapeutics Inc, priority 2020, published 2023).

Like-named read-outs stand apart in the source and are kept apart here. Bounds are passed on as bounds.

The assay has as its system NLRP3. Kind of assay: IL-1β secretion assay in PMA-differentiated, LPS/nigericin-stimulated THP-1 cells (384-well, ELISA read-out). It is filed as cell-based, human. Conditions: Homo sapiens. Summed up:
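THP-1 cells differentiated with PMA (5 ng/mL, 40 h), primed in serum-free medium with 25 ng/mL LPS for 2 h, treated with compounds 1 h (0.5% DMSO), then stimulated with nigericin for 2 h at 37 °C. Supernatant IL-1β measured by ELISA; responses normalized to LPS+5 μM nigericin and LPS-only controls.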
A general note: In an ELISA, binding on a coated surface is turned into a signal by an enzyme label.

Setting [1] is: THP-1, IL-1β secretion, PMA-differentiated THP-1 cells, LPS then nigericin stimulation, ELISA read at 450 nm, read-out: Activity.
The mark [2] stands for this setting: THP-1, Table 4, IL-1β secretion, LPS/nigericin-stimulated THP-1 cells, read-out: IC50.

For `O=C(CN1CC2(CC2)c2cc(Br)ccc2C1=O)NC1(c2ccccc2)CC1` [Example 161, 2-(6-bromo-1-oxospiro[3H-isoquinoline-4,1′-cyclopropane]-2-yl)-N-(1-phenylcyclopropyl)acetamide], the IC50 under setting [1] is less than 10 µM and the IC50 under setting [2] turned out to be 6.12 µM.
On the same counts, the results for `O=C(CN1CC2(CC2)c2cc(Br)ccc2C1=O)Nc1cccc2ncccc12` [Example 162, 2-(6-bromo-1-oxospiro[3H-isoquinoline-4,1′-cyclopropane]-2-yl)-N-quinolin-5-ylacetamide] are less than 10 µM and 3.54 µM.
On the same counts, the results for `O=C(CN1CC2(CC2)c2cc(Br)ccc2C1=O)Nc1ncc(F)s1` [Example 163, 2-(6-bromo-1-oxospiro[3H-isoquinoline-4,1′-cyclopropane]-2-yl)-N-(5-fluoro-1,3-thiazol-2-yl)acetamide] are less than 10 µM and 6.66 µM.
On the same counts, the results for `O=C(CN1CC2(CC2)c2cc(Br)ccc2C1=O)NCC1CCC1` [Example 164, 2-(6-bromo-1-oxospiro[3H-isoquinoline-4,1′-cyclopropane]-2-yl)-N-(cyclobutylmethyl)acetamide] are less than 10 µM and 6.01 µM.
`O=C(CN1CC2(CC2)c2cc(Br)ccc2C1=O)NC1CCN(c2ccc(Cl)nn2)CC1` [Example 165, 2-(6-bromo-1-oxospiro[3H-isoquinoline-4,1′-cyclopropane]-2-yl)-N-[1-(6-chloropyridazin-3-yl)piperidin-4-yl]acetamide]: the IC50 runs as follows: under setting [1], less than 10 µM; under setting [2], 1.63 µM.
On the same counts, the results for `O=C(CN1CC2(CC2)c2cc(Br)ccc2C1=O)Nc1n[nH]c2ccccc12` [Example 166, 2-(6-bromo-1-oxospiro[3H-isoquinoline-4,1′-cyclopropane]-2-yl)-N-(1H-indazol-3-yl)acetamide] are less than 10 µM and 4.84 µM.
Consider `O=C(CN1CC2(CC2)c2cc(Br)ccc2C1=O)Nc1ccc2[nH]nnc2c1` [Example 167, N-(1H-benzotriazol-5-yl)-2-(6-bromo-1-oxospiro[3H-isoquinoline-4,1′-cyclopropane]-2-yl)acetamide], for which the IC50 runs as follows: under setting [1], less than 10 µM; under setting [2], 0.146 µM.
For the compound `O=C(CN1CC2(CC2)c2cc(Br)ccc2C1=O)Nc1cc(C2CC2)n[nH]1` [Example 168, 2-(6-bromo-1-oxospiro[3H-isoquinoline-4,1′-cyclopropane]-2-yl)-N-(3-cyclopropyl-1H-pyrazol-5-yl)acetamide], the IC50 was less than 10 µM under setting [1] and 2.83 µM under setting [2].
On the same counts, the results for `O=C(CN1CC2(CC2)c2cc(Br)ccc2C1=O)Nc1ccc2nc[nH]c2c1` [Example 169, N-(3H-benzimidazol-5-yl)-2-(6-bromo-1-oxospiro[3H-isoquinoline-4,1′-cyclopropane]-2-yl)acetamide] are less than 10 µM and 0.605 µM.
Taken in the same sequence, the figures for `O=C(CN1CC2(CC2)c2cc(Br)ccc2C1=O)Nc1ccc2[nH]ncc2c1` [Example 170, 2-(6-bromo-1-oxospiro[3H-isoquinoline-4,1′-cyclopropane]-2-yl)-N-(1H-indazol-5-yl)acetamide] were less than 10 µM and 1.12 µM.
On the same counts, the results for `Cc1cncc(NC(=O)CN2CC3(CC3)c3cc(Br)ccc3C2=O)n1` [Example 171, 2-(6-bromo-1-oxospiro[3H-isoquinoline-4,1′-cyclopropane]-2-yl)-N-(6-methylpyrazin-2-yl)acetamide] are 10 to 15 µM and 11 µM.
As to `O=C(CN1CC2(CC2)c2cc(Br)ccc2C1=O)Nc1ccc(-c2nnn[nH]2)cc1` [Example 172, 2-(6-bromo-1-oxospiro[3H-isoquinoline-4,1′-cyclopropane]-2-yl)-N-[4-(1H-tetrazol-5-yl)phenyl]acetamide], the IC50 is greater than 15 µM under setting [1] and 23.7 µM under setting [2].
